Source: publication PMC5041982, “Small-molecule inhibition of STAT3 in radioresistant head and neck squamous cell carcinoma” (Oncotarget, 2016)

Key:
STAT3 = STAT3 (Homo sapiens, UniProt P40763); assay: STAT3/pY-peptide binding surface plasmon resonance (SPR) assay; conditions: for Inhibition of STAT3 binding to pY-peptide compared with C188: SPR; for IC50: STAT3 200 nM, EGFR pY1068 dodecapeptide, mean, n ≥ 2, read-out: pY-Peptide Binding (SPR) IC50
Method: The equilibrium binding levels obtained ± compound were normalized (resonance obtained in the presence of compound ÷ the resonance obtained in the absence of compound × 100) and plotted against Log [nM] […] B. Inhibition of ligand-stimulated STAT phosphorylation, measured by phosphoflow. Serum-starved (1 hour) Kasumi-1 cells, pre-incubated with compound/DMSO (1 hour), were treated with G-CSF (10 ng/ml, 15 min, left two panels) or IFN-γ (10ng/ml, 15 min, right panel). Cells were permeabilized and stained with Alexa647-pSTAT3, and PE-pSTAT1 antibodies and analyzed on BD LSR2. FCS files were uploaded to Cytobank for pSTAT3 and pSTAT1 quantitation. Histograms depicting pSTAT3 and pSTAT1 levels are shown. C. Mean fluorescence (pSTAT3/1) levels were plotted as function the Log [M] compound, and IC50 calculated using GraphPad. […] D. Inhibition of ligand-stimulated STAT phosphorylation, measured by Luminex. Serum-starved (1 hour) Kasumi-1 cells, pre-incubated with compound/DMSO (0/0.1/0.3/1/3/10/100 μM, 1 hour), were treated with G-CSF (10 ng/ml, 15′). Total protein extracts of cells were assayed for pSTAT3, pSTAT1, and GAPDH levels by Luminex. GAPDH-normalized pSTAT3 or pSTAT1 values were divided by this ratio for untreated cells and expressed in percentage. These values were plotted as a function of Log [M] compound, and IC50 values calculated using GraphPad. […]
3-D pharmacophore sorting used to evaluate the effect of each compound on STAT3 binding. Responses were normalized by dividing the […]
fingerprint screening were converted into 3-D structures compounds at 2 min and multiplying by 100. IC values […]
for analysis as described below. were determined by plotting % maximum response as a 3-D pharmacophore generation function of log concentration of compound and fitting the Each molecular chemical feature, including experimental points to a competitive binding model using hydrogen bond donor, hydrogen bond acceptor, positive a four parameter logistic equation: R = Rhigh − (Rhigh − R low)/ (1 + conc/A1)^A2, where R = percent response at and negative ionizable group, and hydrophobic region, inhibitor concentration, R = percent response with no was generated using the LigandScout application compound, R= percent response at highest compound high framework and projected into 3-D space. concentration, A2 = fitting parameter (slope) and A1 = low Feature-pairing IC50 (BIAevaluation Software version 4.1). The inhibition Each chemical feature was converted into distance constant (Ki) was derived from the Cheng-Prusoff bin and the complete set of distance bins used to construct equation Ki=IC50/(1+[C]/Kd) as used by Halling et al a cost matrix. The most favorable pairing based on cost where C stands for STAT3 concentration used in the SPR matrix was identified. assay and Kd denotes the dissociation constant for STAT3 3-D pharmacophore transformation binding to its phosphorylated EGFR ligand in the SPR […]
STAT3/pY-peptide binding assay and total protein extracted from cell pellets. […]
STAT3 binding assays were performed at 25 °C (Millipore, Danvers, MA) coupled to antibody against

pSTAT3 (Tyr-705) = target: T1, pSTAT3 (Tyr-705) (Homo sapiens, UniProt P40763); assay: Phosphoflow, G-CSF-induced STAT3 phosphorylation in Kasumi-1 cells; assay type: cell-based; conditions: Kasumi-1, G-CSF 10 ng/ml 15 min; mean, n ≥ 2; read-out: Ligand Induced Phosphorylation (Phosphoflow) pSTAT3 (GCSF) IC50
T1 construct: endogenous in cells; host or cells: Kasumi-1
Method: (§1) The equilibrium binding levels obtained ± compound were normalized (resonance obtained in the presence of compound ÷ the resonance obtained in the absence of compound × 100) and plotted against Log [nM] […] B. Inhibition of ligand-stimulated STAT phosphorylation, measured by phosphoflow. Serum-starved (1 hour) Kasumi-1 cells, pre-incubated with compound/DMSO (1 hour), were treated with G-CSF (10 ng/ml, 15 min, left two panels) or IFN-γ (10ng/ml, 15 min, right panel). Cells were permeabilized and stained with Alexa647-pSTAT3, and PE-pSTAT1 antibodies and analyzed on BD LSR2. FCS files were uploaded to Cytobank for pSTAT3 and pSTAT1 quantitation. Histograms depicting pSTAT3 and pSTAT1 levels are shown. C. Mean fluorescence (pSTAT3/1) levels were plotted as function the Log [M] compound, and IC50 calculated using GraphPad. […] D. Inhibition of ligand-stimulated STAT phosphorylation, measured by Luminex. Serum-starved (1 hour) Kasumi-1 cells, pre-incubated with compound/DMSO (0/0.1/0.3/1/3/10/100 μM, 1 hour), were treated with G-CSF (10 ng/ml, 15′). Total protein extracts of cells were assayed for pSTAT3, pSTAT1, and GAPDH levels by Luminex. GAPDH-normalized pSTAT3 or pSTAT1 values were divided by this ratio for untreated cells and expressed in percentage. These values were plotted as a function of Log [M] compound, and IC50 values calculated using GraphPad.
(§2) Phosphoflow analysis was done as described in Xu et al. Briefly, Kasumi-1 cells, were serum-starved, pre-treated with compound or DMSO (1 hour, RT) and then stimulated with 20 μl of GCSF (10 ng/ml) for 15 minutes at 37°C. The cells were then permeabilized and stained with Alexa647-pSTAT3, Alexa488-pSTAT5 and PE-pSTAT1 antibodies and analyzed using the BD LSR2. FCS files were exported and uploaded to Cytobank for determination of phosphoproteins as earlier. Gating was done on live, single cells and then gates selected for positive ligand-activated pSTAT3 and pSTAT1. IC50 values were calculated using the GraphPad Prism.

pSTAT5 = assay: Phosphoflow, G-CSF-induced pSTAT5 in Kasumi-1 cells; assay type: cell-based; conditions: mean, n ≥ 2, read-out: Ligand Induced Phosphorylation (Phosphoflow) pSTAT5 (G-CSF) IC50
Method: as §2

pSTAT1 (Tyr-701) = target: T2, pSTAT1 (Tyr-701) (Homo sapiens, UniProt P42224); assay: Phosphoflow, IFN-γ-induced pSTAT1 in Kasumi-1 cells; assay type: cell-based; conditions: Kasumi-1, IFN-γ 10 ng/ml 15 min; mean, n ≥ 2; read-out: Ligand Induced Phosphorylation (Phosphoflow) pSTAT1 (IFN-γ) IC50
T2 construct: endogenous in cells; host or cells: Kasumi-1
T2 sequence (P42224 1-750): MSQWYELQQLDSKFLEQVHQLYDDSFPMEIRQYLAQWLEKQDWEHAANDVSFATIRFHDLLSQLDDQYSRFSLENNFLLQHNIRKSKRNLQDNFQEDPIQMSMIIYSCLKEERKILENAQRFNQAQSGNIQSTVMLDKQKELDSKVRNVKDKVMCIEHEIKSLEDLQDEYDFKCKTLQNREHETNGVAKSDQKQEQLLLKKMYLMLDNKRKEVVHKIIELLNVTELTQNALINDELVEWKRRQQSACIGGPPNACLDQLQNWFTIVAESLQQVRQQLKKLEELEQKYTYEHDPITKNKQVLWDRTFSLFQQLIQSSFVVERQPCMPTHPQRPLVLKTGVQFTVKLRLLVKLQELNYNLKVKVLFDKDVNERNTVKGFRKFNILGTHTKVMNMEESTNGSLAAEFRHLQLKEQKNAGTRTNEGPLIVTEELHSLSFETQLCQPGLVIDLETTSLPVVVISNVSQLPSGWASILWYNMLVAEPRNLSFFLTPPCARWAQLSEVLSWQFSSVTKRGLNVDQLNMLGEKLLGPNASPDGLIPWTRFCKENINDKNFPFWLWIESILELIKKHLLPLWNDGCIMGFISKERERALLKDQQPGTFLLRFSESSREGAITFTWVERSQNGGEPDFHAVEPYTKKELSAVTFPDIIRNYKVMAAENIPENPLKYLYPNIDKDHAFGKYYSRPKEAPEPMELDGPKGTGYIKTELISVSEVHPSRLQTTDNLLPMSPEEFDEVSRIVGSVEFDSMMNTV
Method: as §1, §2

[1] = test system: normal murine bone marrow colony formation; assay: Normal murine bone marrow colony formation; assay type: cell-based; conditions: studies not shown (Tweardy et al 2010, unpublished)

T1 sequence (P40763 whole entry): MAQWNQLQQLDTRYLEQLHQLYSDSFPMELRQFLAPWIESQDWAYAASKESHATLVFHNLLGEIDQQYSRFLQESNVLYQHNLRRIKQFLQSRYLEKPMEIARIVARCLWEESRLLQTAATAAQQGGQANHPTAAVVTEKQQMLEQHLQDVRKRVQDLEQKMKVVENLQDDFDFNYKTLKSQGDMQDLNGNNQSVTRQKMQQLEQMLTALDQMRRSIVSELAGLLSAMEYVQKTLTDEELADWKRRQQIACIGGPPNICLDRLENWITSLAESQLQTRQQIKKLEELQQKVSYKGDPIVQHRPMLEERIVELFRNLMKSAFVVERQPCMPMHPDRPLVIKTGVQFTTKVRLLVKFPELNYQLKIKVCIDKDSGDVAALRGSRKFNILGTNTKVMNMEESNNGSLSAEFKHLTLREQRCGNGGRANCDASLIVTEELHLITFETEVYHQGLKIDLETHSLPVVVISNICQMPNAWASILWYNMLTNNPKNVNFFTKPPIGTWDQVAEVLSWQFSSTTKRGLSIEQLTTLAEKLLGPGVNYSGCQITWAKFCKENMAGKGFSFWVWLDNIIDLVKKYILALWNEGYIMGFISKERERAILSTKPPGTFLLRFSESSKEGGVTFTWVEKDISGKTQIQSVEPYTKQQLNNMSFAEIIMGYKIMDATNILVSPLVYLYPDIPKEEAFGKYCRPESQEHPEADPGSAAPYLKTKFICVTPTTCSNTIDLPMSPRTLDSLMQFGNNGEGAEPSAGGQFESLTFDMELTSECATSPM
Sequence of STAT3 (P40763 whole entry, species assumed): as the sequence (P40763 whole entry) above

Row | Compound | Inhibition of STAT3 binding to pY-peptide compared with C188 (STAT3) | IC50 (STAT3) [µM] | IC50 (pSTAT3 (Tyr-705)) [µM] | IC50 (pSTAT5) [µM] | IC50 (pSTAT1 (Tyr-701)) [µM] | Inhibition of normal murine bone marrow colony formation [1]
1 | CC(C)OC(=O)C(C(=O)C(F)(F)F)c1cc(NS(=O)(=O)c2ccc(F)cc2)c2ccccc2c1O (centres unmarked) [Compound C188-7] | improved inhibition | 4.7 ± 2.1 | 10.5 ± 13.4 | > 300 | 35 ± 39.6 | inhibited
2 | CC(C)OC(=O)C(C(=O)C(F)(F)F)c1cc(NS(=O)(=O)c2ccc3c4c(cccc24)C(=O)N3)c2ccccc2c1O (centres unmarked) [Compound C188-8] | improved inhibition | 4.5 ± 2.1 | 3.4 ± 0.9 | 23 | 35 ± 25.2 | inhibited
3 | O=S(=O)(Nc1cc(Sc2nc[nH]n2)c(O)c2ccccc12)c1ccc(Br)cc1 [Compound C188-15] | improved inhibition | 1.5 ± 0.7 | 3.3 ± 0.2 | 12 ± 1.4 |  | inhibited
4 | CCc1ccc(S(=O)(=O)Nc2cc3c(C(=O)OCCOC)c(C)oc3c3ccccc23)cc1 [Compound C188-22] |  | 73 ± 17 | > 300 | > 300 | > 300 | 
5 | CC(=O)Nc1ccc(S(=O)(=O)Nc2cccc3ccccc23)cc1 [Compound C188-23] |  | > 300 | > 300 | > 300 | > 300 | 
6 | O=S(=O)(Nc1cccc2ccccc12)c1ccc(Cl)cc1 [Compound C188-24] |  | > 300 | > 300 | > 300 | > 300 | 
7 | CC1(C)CC(=O)c2c(oc3c2cc(NS(=O)(=O)c2ccc(Br)cc2)c2ccccc23)C1 [Compound C188-25] |  | 45 ± 8.5 | > 300 | > 300 | 17 | 
8 | Cc1oc2c(cc(NS(=O)(=O)c3ccc(Cl)cc3)c3ccccc32)c1C(=O)OCc1ccccc1 [Compound C188-30] |  | 70.5 ± 70 | > 300 | > 300 | > 300 | 
9 | Cc1cc(C)c(S(=O)(=O)Nc2cc(C(C(=O)OC(C)C)C(=O)C(F)(F)F)c(O)c3ccccc23)cc1C (centres unmarked) [Compound C188-31] |  | 42 ± 7.1 | 13 | > 300 | 47 | 
